Experimental data: patent US20250304526A1, “HIGH AND MULTIPLE REDOX POTENTIAL, STABLE, AND SOLUBLE BIS-DIARYLAMINE DERIVATIVES AND USES THEREOF” (University of Kentucky Research Foundation, priority 2024, published 2025)

Experiments:
[1] = Cyclic voltammetry (redox potentials, diffusion coefficients); assay type: physicochemical; conditions: for Redox peak of radical cation formation (first oxidation potential): 1 mM, 0.1 M TBAPF6 in CH3CN, glassy carbon; for Kc (comproportionation constant): calculated from ΔE at 298 K
Method: CV measurements were carried out in a nitrogen-filled glovebox at ambient glovebox temperature using a VSP-300 potentiostat (BioLogic). Unless otherwise indicated, the CVs were recorded in 0.2 M TBAPF6/CH3CN as electrolyte with 3 mm diameter glassy carbon (CH Instruments, Inc.) as the working electrode. A non-aqueous Ag/Ag^+ (silver wire immersed in CH3CN containing 0.1 M TBABF4 and 0.01 M AgBF4) electrode was used as the reference electrode, and a Pt wire (CH Instruments, Inc.) as the counter electrode. Before each measurement, glassy carbon electrodes were mechanically polished with an aqueous slurry of graded alumina (0.05 μm), then ultra-sonicated in water then acetone for 1 min each. Voltammograms were recorded at a scan rate of 100 mV·s^−1. Ferrocene was used as an internal reference and the oxidation potentials were calibrated with respect to ferrocene/ferrocenium (Cp2Fe^0/+) redox couple. The diffusion coefficients were determined using Randles-Sevick equation: […]
with R being the perfect gas constant (8.314 J·mol^−1·K^−1), F the Faraday's constant (96485 C·mol^−1), T the absolute temperature (˜298 K), ip is the peak current intensity (in A), n the number of transferred electrons, A the area of the electrode (cm^2), D the diffusion coefficient (cm^2·s^−1), v the scan rate (V·s^−1) and c the concentration (mol·cm^−3). Data obtained from voltammograms at scan rates of 25, 50, 75, 100, 200, 300 and 400 mV·s^−1 were used for the calculation of diffusion coefficients.
Electrochemical characterization of 1-4 was achieved by cyclic voltammetry (CV) in 0.1 M TBAPF6 in CH3CN. Glassy carbon was used as the working electrode and 1 mM of active materials were used. All derivatives featured two distinct one-electron oxidation waves upon voltage sweep. The first and the second waves correspond to the sequential neutral to radical-cation and radical-cation to dication transformations, respectively. These features are in line with the presence of two redox centers in these molecules. The redox peaks associated with the radical cation formation for molecules 1 and 2 are centered at 0 and 0.17 V vs Fc^+/Fc, respectively (FIG. 4). These values are in line with the data reported in literature for the same molecules.^8 Note that in previous literature the electrochemistry is reported in 0.1 M TBAClO4 in dichloromethane and reported versus a Ag/AgCl reference electrode. The Fc^+/Fc couple has a redox potential at 0.403 V vs SCE and 0.44 V vs Ag/AgCl reference electrode. On the other hand, molecules 3 and 4 feature the radical cation transformation redox peaks at 0.41 and 0.53 V vs Fc^+/Fc, respectively (FIG. 4).
In fact, these molecules belong to a class of compounds known as mixed-valence (MV) compounds. Mixed valency is a term that refers to a chemical species, whether organic or inorganic, with two or more redox centers that have different oxidation stated. This concept was first introduced in 1915 by Hofmann and Hoeschele. MV species are usually intensely colored due to the unique electronic transitions associated with intervalence electron transfer. CV is a useful technique in studying MV species since it provides insights on how stable one ionic species will be with respect to disproportionation, using the comproportionation constant (Kc). Kc is used to measure the ease of isolating the radical-cation rather than obtaining a mixture of neutral, radical-cationic, and dicationic species. Kc can be calculated from the ΔE which is the value of the redox potential difference between the first and the second oxidation events. Kc is a quantity used to evaluate the electronic communication between two redox centers in mixed-valence species. Large comproportionation constant, i.e. a substantial value of ΔE, is a crucial requirement for the isolation of mixed-valence species separately of other oxidation states of the species. Kc is defined as: […]

[2] = Galvanostatic bulk electrolysis (BE) cycling in H-cell; assay type: physicochemical; conditions: for Cyclic voltammograms before and after BE (decomposition check): 0.1M TBAPF6/CH3CN, scan rate 0.2 V·s^−1
Method: BE experiments were performed in custom-made H-cells. The H-cell has two electrolyte chambers separated by an ultra-fine porous glass frit (P5, Adams and Chittenden) which prevents the mixing of the electrolytes. Two homemade reticulated vitreous carbon (45 PPI, Duocel®) electrodes, placed in both chambers separately served as the working and counter electrodes. A non-aqueous Ag/Ag^+ (silver wire immersed in CH3CN containing 0.1 M TBABF4 and 0.01 M AgBF4) electrodes was used as a reference electrode and was placed next to the working electrode in the same chamber. In addition, a 3 mm-glassy carbon electrode (CH Instruments, Inc.) was attached to the working electrode chamber to record CVs before and after bulk electrolysis experiments. In each of the working and the counter electrode chambers, 3.5 mL of electrolyte containing a given concentration of the neutral active species and 0.1 M TBAPF6/CH3CN were added to both the working and the counter electrode chambers for charge-discharge cycling. The voltage cut-offs were determined by recording a CV in the working electrode side prior to the start of the bulk electrolysis experiment. The values of the cut-off voltage were set by adding 0.3 V to the calculated half-way oxidation potential determined by CV. Both the working and the counter electrode chambers were stirred throughout the bulk electrolysis experiments at a stirring speed of 900 rpm to maintain mass transfer during charging and discharging. The experiment was conducted at variable C-rates, starting with 3 C then 2 C and finally 1 C with 8 cycles run at each C-rate. The galvanostatic control and data acquisition were achieved by incorporating a BioLogic VSP potentiostat.
Galvanostatic bulk electrolysis (BE) cycling was performed to monitor the charged species self-discharge by following the coulombic efficiency (CE). BE is particularly interesting because it provides deeper insights on the electrochemical stability of the electroactive compounds upon continuous galvanostatic cycling. More information about this technique is provided in the supplementary information. Essentially, if trace impurities existing in the electrolyte trigger self-discharge of the charged species, a relatively large portion of oxidized species will switch to its uncharged form if the concentration of active species is low. However, at elevated concentrations, the relative concentration of impurities with respect to active species will be considerably lower and their effect will be minimized. In other words, higher CEs are expected when the active species concentration is larger.
CE is calculated by dividing the amount of charge passed during discharging (Qdischarge) by the amount of charge passed during charging (Qcharge). A considerably lower than 99% CE indicates instability and decomposition of active material via parasitic processes. It is known that CE is affected by the C-rate at which the battery is charged/discharged. Higher C-rates usually yield higher CEs due to the fact that less time is given for unwanted parasitic processes to consume the charged species, unlike in slow C-rates where such processes are allowed to consume charge leading to lower CEs.
BE cycling was performed at three different C-rates 3 C, 2 C, and 1 C with eight charge/discharge cycles at each C-rate. At slower charge-discharge rates, the accessed capacities were higher. This is expected due to the increase in the cell polarization at faster cycling rates.

Structure (SMILES) | Redox peak of radical cation formation (first oxidation potential) [1] | Kc (comproportionation constant) [1] | Cyclic voltammograms before and after BE (decomposition check) [2] | Capacity retention during BE ([2]; all C-rates (3 C, 2 C, 1 C)) | Capacity retention during BE ([2]; after 8 cycles at 1 C) | Capacity retention during BE ([2]; after 8 cycles at 2 C) | Capacity retention during BE ([2]; after 8 cycles at 3 C)
COc1ccc(N(c2ccc(OC)cc2)c2ccc(N(c3ccc(OC)cc3)c3ccc(OC)cc3)cc2)cc1 [1^+⋅] | 0 V vs Fc^+/Fc | 3 × 10^6 | nearly identical | ~99% |  |  | 
COc1ccc(N(c2ccc(OC)cc2)c2ccc(-c3ccc(N(c4ccc(OC)cc4)c4ccc(OC)cc4)cc3)cc2)cc1 [2^+⋅] | 0.17 V vs Fc^+/Fc | 5 × 10^2 | identical CVs | good capacity retention |  |  | 
Cc1ccc(C(F)(F)F)cc1N(c1ccc(N(c2cc(C(F)(F)F)ccc2C)c2cc(C(F)(F)F)ccc2C)cc1)c1cc(C(F)(F)F)ccc1C [3^+⋅] | 0.41 V vs Fc^+/Fc | 3 × 10^8 | nearly identical features |  | 94% | 97% | 99%
Cc1ccc(C(F)(F)F)cc1N(c1ccc(-c2ccc(N(c3cc(C(F)(F)F)ccc3C)c3cc(C(F)(F)F)ccc3C)cc2)cc1)c1cc(C(F)(F)F)ccc1C [4^+⋅] | 0.53 V vs Fc^+/Fc | 5 × 10^2 | substantial decrease in the peak heights | remarkable capacity decay |  |  | 
